Source: patent US20080260858A1, “Universal Procoagulant” (The Board of Trustees of the University of Illnois, priority 2005, published 2008)
Where two headings read alike, the source gives them in different places.

Tests used:
pooled normal plasma [1] = assay: aPTT clotting assay; format: biochemical, human; conditions: metal ion with NTA-lipids (100 μM lipid)
Experimental: (§1) The modified aPTT reagent contained varying concentrations of the indicated metal salts, NTA-lipids (100 μM lipid), 0.08% (w/v) sodium azide, and 16 mM Hepes buffer, pH 7.4.
aPTT assays were performed with modified aPTT reagents containing varying concentrations of NiSO4, CoCl2, CuSO4, ZnCl2, FeSO4, CdCl2, CrCl2, AgNO3 or MnCl2 in the presence of NTA-lipids (FIG. 12C). […] Co^2+ and Zn^2+ some activity (see FIG. 12C). […] Ni^2+ performed substantially better in this assay than did Cu^2+.
aPTT clotting assay—aPTT clotting assays were also carried out in a model ST4 coagulometer (Diagnostica Stago). The aPTT assays were performed by pipetting 50 μl of an aPTT reagent and 50 μl pooled normal plasma into a coagulometer cuvette and incubating the mixture for 3 min at 37° C. 50 μl prewarmed 25 mM CaCl2 was then pipetted into the cuvette and the time to clot formation was recorded.

pooled normal plasma [2] = assay: PT clotting assay with modified thromboplastin reagents; format: biochemical, human; conditions: for Concentration of TF that yields a 50 sec. clot time: His-tagged sTF with Ni-NTA-DOGS/PCPSPE (SUV with 10 mol % Ni-NTA-DOGS), rTF with PCPS
Experimental: Thromboplastin reagents containing TF and phospholipids were prepared and diluted to various concentrations of TF. The diluted thromboplastin reagents were then used in the PT assay (FIG. 4). The four modified thromboplastin reagents were made as follows: 1. 100 ng/ml rTF relipidated in PCPS vesicles (30 μM), 2. […] The thromboplastin reagents were diluted in TA (50 mM Tris-HCl buffer, pH 7.5, 0.1% bovine serum albumin, 0.1% NaN3) to varying concentrations of TF.
as §1
Thromboplastin reagents—To prepare a conventional thromboplastin reagent, rTF was relipidated into phospholipid vesicles composed of 20 mol % PS, 80 mol % PC (rTF/PCPS) at a 8700:1 molar ratio of phospholipid to rTF as described. rTF/PCPS preparations were then diluted to the desired final rTF concentration in TBSA (50 mM Tris-HCl buffer, pH 7.5, 100 mM NaCl, 0.1% bovine serum albumin, 0.1% NaN3).
(§2) PT clotting assay—PT assays were performed in a model ST4 coagulometer (Diagnostica Stago) by pipetting 50 μl of 25 mM CaCl2 and 50 μl diluted thromboplastin reagent into a coagulometer cuvette and allowing the mixture to warm to 37° C. for 2 min. Clotting was then initiated by pipetting 50 μl pre-warmed, pooled normal plasma into the cuvette and the time to clot formation recorded.

[3] = tested on: pooled normal human plasma; assay: Clotting assay with immobilized lipids; format: biochemical; conditions: 200 nmol dried NiPCPSPE per well; 4800 nM
Experimental: Mixtures of DOGS-NTA-Ni and phospholipids were dried-down in the wells of a polystyrene coagulometer cuvette, the cuvettes were washed to remove any non-immobilized lipid, and then sTF-5AA-(His)6 was added to the wells. Clotting tests were subsequently conducted by adding calcium ions and plasma to wells. […] Control experiments were conducted using other lipid compositions, which were all dried down onto the cuvette well at a single amount of lipid per well (200 nmol).
Clotting assay with immobilized lipids—Lipid mixtures in chloroform were first dried down in a borosilicate glass test tube under a gentle stream of dry nitrogen gas to remove the solvent, after which the dried lipids were redissolved in n-hexane at a total lipid concentration of 0.3 to 5.3 mM. Complete lipid mixtures were termed NiPCPSPE and consisted of 10% DOGS-NTA-Ni, 12.5% PS, 30% PE, and 47.5% PC. […]
Each well of an ST4 cuvette received 150 μl of lipid solution in hexane (containing 50 to 800 nmol total lipid per well). […] A 50 μl aliquot of 25 mM CaCl2 was added per well and the cuvettes were incubated for 2 min at 37° C., after which a 50 μl aliquot of pre-warmed (37° C.) pooled normal human plasma was added and the time to clot formation was measured.

VIIa [4] = target: T1, VIIa (Homo sapiens, UniProt P08709); assay: Kd for VIIa binding to TF (X activation rate as readout)
T1 construct: VIIa or factor VIIa means coagulation factor VIIa (active enzyme); purchased American Diagnostica
T1 sequence (P08709 61-212): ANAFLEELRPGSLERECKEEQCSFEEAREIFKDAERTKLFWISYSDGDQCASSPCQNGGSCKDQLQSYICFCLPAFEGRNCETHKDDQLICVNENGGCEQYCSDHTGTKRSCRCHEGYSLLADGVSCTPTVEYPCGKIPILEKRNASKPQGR
T1 sequence (P08709 213-466): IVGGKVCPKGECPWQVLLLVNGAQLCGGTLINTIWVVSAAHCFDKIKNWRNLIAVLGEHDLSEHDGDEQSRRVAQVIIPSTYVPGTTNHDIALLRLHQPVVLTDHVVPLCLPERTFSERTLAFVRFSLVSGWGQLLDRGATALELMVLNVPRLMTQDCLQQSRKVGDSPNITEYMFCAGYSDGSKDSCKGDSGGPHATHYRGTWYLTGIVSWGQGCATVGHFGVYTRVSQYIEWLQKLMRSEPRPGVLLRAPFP
Experimental: When VIIa binds to TF, its rate of X activation increases dramatically, so this can be used as a convenient readout for TF:VIIa complex formation. […] Therefore, when the isolated TF ectodomain was attached to the membrane surface via interaction with metal-chelating lipids, its VIIa binding ability was indistinguishable from membTF that spanned the lipid bilayer.
Measurement of the Kd for VIIa binding to TF—The binding affinity of VIIa for various forms of TF was measured using the TF-dependent increase in the rate of X activation as the readout for TF:VIIa complex formation. Activation of X by the TF:VIIa complex was measured by adapting the continuous chromogenic assay of Fiore et al.. Reaction mixtures containing Vila and either rTF/PCPS or sTF+SUVs were prepared in HBSAC. Reactions were initiated by adding a mixture of X and the chromogenic substrate, S-2222, in a flat bottom, 96-well plate. Change in A405 was monitored at ambient temperature in a VERSAmax microplate reader (Molecular Devices), sampling every 15 sec for 20 min. Initial rates of X activation were determined by fitting a second-order polynomial to the A405 data as described. The quadratic ligand binding equation was fit to the rate data as described to derive apparent Kd values for the binding of VIIa to TF. For experiments using relipidated rTF, typical reaction mixtures containing 0.25 μM VIIa and 20 nM X in HBSAC were incubated with increasing concentrations of rTF/PCPS.

X activation by VIIa = target: T2, X activation by VIIa (Homo sapiens, UniProt P08709); assay: Factor X activation using liposomes; format: biochemical; conditions: sTF-5AA-(His)6 with PCPS liposomes, or sTF with NiPCPS liposomes
T2 construct: VIIa or factor VIIa means coagulation factor VIIa (active enzyme); purchased American Diagnostica
Experimental: A stringent test of TF:VIIa function is its ability to support the activation of its natural protein substrate, X. This requires that TF be incorporated into a suitable phospholipid membrane (i.e., one containing negatively charged phospholipids). […] The ability of various forms of TF to support the activation of X was compared under equivalent concentrations of enzyme (500 pM VIIa), cofactor (4 pM TF) and liposomes (50 μM total lipid).
Factor X activation using liposomes. […] At varying times, 20 μl aliquots were removed into a 96-well plate containing 100 μl Stop Buffer 1 (40 mM Mes-NaOH pH 5.8, 12 mM EDTA, 50 mM NaCl, 0.25% Triton X-100, 0.1% NaN3, 0.012% Antifoam C) at 4° C. After warming the stopped reactions to room temperature, Xa was detected by adding 60 μl of 1.5 mM Spectrozyme Xa in HBSAC plus 0.6 M Tricine-NaOH, pH 8.4 and quantifying change in A405. Amounts of Xa generated were determined by comparison to a standard curve with purified Xa.

factor-deficient plasmas = assay: PT assay with factor-deficient plasmas; format: biochemical, human; conditions: 3 μg/ml sTF(His)6 with 100 μM 15% Ni-lipid, or commercial reagent
Text: A major goal was to create a soluble form of TF that can function as a thromboplastin reagent in the PT assays. […] This reagent was then compared in PT assays to a commercially available thromboplastin reagent, STA-Neoplastine CI Plus (Diagnostica Stago). Clotting times with the two reagents were compared using pooled normal plasma as well as a number of factor-deficient plasmas (FIG. 6). (The latter were deficient in factors V, VII, VIII, IX, X, XI, XII, prekallikrein (PK), or high molecular weight kininogen (HK)).
as §2

VIIa [5] = target: T3, VIIa (Homo sapiens, UniProt P08709); assay: Allosteric activation of VIIa (chromogenic assay); format: biochemical; conditions: compared to sTF and rTF/PCPS; data not shown
T3 construct: VIIa or factor VIIa means coagulation factor VIIa (active enzyme); purchased American Diagnostica
Experimental: Measurement of Allosteric Activation of VIIa—The ability of TF to allosterically activate factor VIIa was carried out measuring the enzymatic activity of factor VIIa by a chromogenic assay. […] The reaction was initiated by the addition of the chromogenic substrate, Chromozym® t-PA (ChtPA) in a flat bottom, 96-well plate. […] Change in A405 was monitored at ambient temperature in a VERSAmax microplate reader (Molecular Devices), reading every 30 seconds for 20 minutes.

VIIa [6] = target: T1, VIIa; conditions: rTF relipidated into PCPS vesicles; literature [4]; read-out: Kd for VIIa binding; cited from earlier work
[7] = ± SEM, sTF and rTF with PCPS, sTF-(His)6 with Ni-NTA-DOGS/PCPSPE (SUV with 15 mol % Ni-NTA-DOGS), read-out: Kd.app for VIIa binding

[Cl-].[Cl-].[Zn+2] [Zn^2+, ZnCl2]
activity in aPTT assay (pooled normal plasma [1]): some activity | activity in PT assay (pooled normal plasma [2]; metal ion with NTA-lipids (100 μM lipid), 30 ng/ml sTF-5AA-(His)6): some activity

sTF: soluble tissue factor, a truncated, soluble form of tissue factor that does not have the membrane-spanning domain nor the cytoplasmic domain [reference compound]
clotting times compared with sTF-5AA-(His)6 [3]: much longer clotting times | Kd (VIIa [4]; sTF, read-out: Kd for VIIa binding): 7000 pM | rates of X activation by VIIa, control combinations (X activation by VIIa): negligible rates of X activation

[Cl-].[Cl-].[Co+2] [Co^2+, CoCl2]
activity in aPTT assay (pooled normal plasma [1]): some activity | PT clotting time shortened to (pooled normal plasma [2]; metal ion added to modified thromboplastin reagent, NTA-lipids, 30 ng/ml sTF-5AA-(His)6): less than 100 sec

O=S(=O)([O-])[O-].[Ni+2] [Ni^2+, NiSO4]
activity in aPTT assay (pooled normal plasma [1]): dramatically shortened the clotting time

O=S(=O)([O-])[O-].[Cu+2] [Cu^2+, CuSO4]
activity in aPTT assay (pooled normal plasma [1]): dramatically shortened the clotting time

sTF(His)6: oligohistidine-tagged sTF; replaces the final two amino acids of sTF with six histidine residues
PT clotting times with plasmas deficient in factors V, VII or X (factor-deficient plasmas): prolonged clotting times | PT sensitivity to deficiencies in clotting factors of the intrinsic pathway (factors VIII, IX, XI, XII, PK, or HK) (factor-deficient plasmas): insensitive | procoagulant activity compared with sTF (pooled normal plasma [2]; PT assay, 10% Ni-lipids): dramatically higher than sTF | Concentration of TF that yields a 50 sec. clot time (pooled normal plasma [2]; PT assay): 45 ng/mL | Kd (VIIa [4]; read-out: Kd for VIIa binding to the his-tagged sTF variants, 15% Ni-lipid): 169 pM | Kd (VIIa [4]; [7]): 169 ± 15 pM | ability to allosterically activate VIIa (VIIa [5]): able to fully allosterically activate VIIa

B1: rTF: recombinant, membrane-anchoring tissue factor; rTF/PCPS is rTF relipidated into 20 mol % PS, 80 mol % PC vesicles (protein, UniProt P13726 1-295, looked up)
chain: METPAWPRVPRPETAVARTLLLGWVFAQVAGASGTTNTVAAYNLTWKSTNFKTILEWEPKPVNQVYTVQISTKSGDWKSKCFYTTDTECDLTDEIVKDVKQTYLARVFSYPAGNVESTGSAGEPLYENSPEFTPYLETNLGQPTIQSFEQVGTKVNVTVEDERTLVRRNNTFLSLRDVFGKDLIYTLYYWKSSSSGKKTAKTNTNEFLIDVDKGENYCFSVQAVIPSRTVNRKSTDSPVECMGQEKGEFREIFYIIGAVVFVVIILVIILAISLHKCRKAGVGQSWKENSPLNVS
modifications: full-length relipidated in PS/PC vesicles
notes: recombinant, membrane-anchoring tissue factor; rTF/PCPS is rTF relipidated into 20 mol % PS, 80 mol % PC vesicles
Kd (VIIa [6]): < 50 pM | Concentration of TF that yields a 50 sec. clot time (pooled normal plasma [2]; PT assay): 0.7 ng/mL | affinity of VIIa for rTF/PCPS relative to sTF (VIIa [4]): approximately 100 fold | Kd (VIIa [4]; [7]): 40 ± 5 pM
